US4092431A, “Pharmaceutical composition and method of the use thereof” (Chugai Seiyaku Kabushiki Kaisha, priority 1977, dated 1978)

Key:
Acute toxicity in mice = settings: mouse, in vivo, po
pylorus ligature ulcer = experiment: Protective action on pylorus ligature ulcer formation; type: in vivo, Sprague-Dawley strain male rats; settings: for Death Rate / Perforating Ulcers / Ulcer Index (mean value ± standard deviation) / Percent Inhibition: in the duodenum; for Ulcer Index (mean value ± standard deviation): scale 0 to 5, control 4.0 ± 1.3; for Percent Inhibition: ulcer index
Method: The pylorus of Sprague-Dawley strain male rats weighing 150-200 g that had abstained from food, but not water for 48 hours was ligatured under ether anethsia. Each rat was allowed to stand individually in a cage for 16 hours without food and water. At the end of this term, the rats were sacrificed by an overdose of diethyl ether. The stomach was taken out of each animal and the gastric mucosa was obserbed by the use of a dissecting microscope.
Ulcers observed in the gastric mucosa were evaluated on a scale of from 0 to 5 defined as follows.
0: No lesion was observed.
1: Hemorrhage and/or erosion were observed.
2: One to five small ulcers less than 3 mm in diameter were observed.
3: Six or more small ulcers and/or a large ulcer more than 3 mm in diameter were observed.
4: Two or more large ulcers were observed.
5: At least one perforating ulcer was observed.
A test compound was administered as an aqueous solution in an equivalent molar of hydrochloric acid in the duodenum immediately after the pylorus ligature.

stress-induced ulcer = experiment: Inhibitory action on stress-induced ulcer formation; type: in vivo, Sprague-Dawley strain male rats; settings: oral; for Ulcer Index (mean value ± standard deviation): Ulcer Index = a + b/10, control 6.1 ± 2.3; for Number of Ulcers/Stomach, 3 mm or larger: control 1.3; for Number of Ulcers/Stomach, up to 3 mm: control 45.6; for Percent Inhibition: ulcer index; for dose dependence of inhibiting action on ulcer formation: 30 mg/kg and above
Method: Sprague-Dawley strain male rats weighing 200-250 g were deprived of food for 24 hours, and then laid down on their backs on a screen and fixed by fastening their limbs with a strand. The fixed rats were submerged in water bath to the depth of ensiform process with their hind legs dipped first. Sixteen hours after the submerge, the rats were brought out from the bath and their stomachs were taken out. After light fixation with a 1% formalin aqueous solution, the stomach of each animal was cut open along their greater curvature and gastric mucosa was observed through a dissecting microscope. The ulcer was evaluated on an ulcer index calculated from the following equation: […]
wherein a is the number of big ulcers more than 3 mm in diameter and b is the number of small ulcers up to 3 mm in diameter.
A test compound was orally administered as a suspension in a 1% gum arabic aqueous solution, 10 minutes before exposure to stress.

acetic acid ulcer = experiment: Action on the healing of acetic acid ulcers; type: in vivo, Sprague-Dawley strain male rats; settings: oral; for Percent healing Rate / Ulcer Index (mean number ± standard deviation), product of major and minor axis: once a day for 15 days; for Ulcer Index (mean number ± standard deviation), product of major and minor axis: control 12.5 ± 6.0
Method: Sprague-Dawley strain male rate (8 weeks old) were etherized and their abdominal parts were cut open. A 20% acetic acid aqueous solution (0.05 ml) was injected into subserosal layer in the glandular part of stomach of each rat and the incisions were sutured.
From the fourth day after the operation, each rat was orally administered with 1-(3'-dimethylaminopropoxy)-2,4-bis(3"-methylbenzamido)-benzene in a dose of 10 mg/kg or 40 mg/kg. body weight as an aqueous solution in an equivalent molar of hydrochloric acid once a day for 15 days. On the day after the last administration, the rats were sacrificed by an overdose of diethyl ether and the stomach of each of the rats was taken out. After light fixation of the stomach with a 1% formalin solution, it was cut open along the greater curvature and the gastric mucosa was observed through a dissecting microscope. The ulcer was evaluated as the product (mm^2) of the major axis and the minor axis of the ulcer.

Cc1ccccc1C(=O)Nc1ccc(C(=O)NCCCN(C)C)c(NC(=O)c2ccccc2C)c1 [1-[N-(3'-dimethylaminopropyl)-carbamoyl]-2,4-bis(2"-methylbenzamido)-benzene]
LD50 (Acute toxicity in mice): > 11000 mg/kg | inhibition of death of rats and formation of perforating ulcers (pylorus ligature ulcer; 200 mg/kg): completely inhibited the death of rats and the formation of perforating ulcers | prevention of formation of gastric ulcers (pylorus ligature ulcer; 200 mg/kg): prevented the formation of gastric ulcers on a statistically significant level | Death Rate (pylorus ligature ulcer; 200 mg/kg): 0% | Perforating Ulcers (pylorus ligature ulcer; 200 mg/kg): 0% | Ulcer Index (mean value ± standard deviation) (pylorus ligature ulcer; 200 mg/kg): 1.4 ± 1.4 | Percent Inhibition (pylorus ligature ulcer; 200 mg/kg): 65% | inhibition of the formation of ulcer (stress-induced ulcer; 100 mg/kg body weight): 50-60% | Ulcer Index (mean value ± standard deviation) (stress-induced ulcer; 100 mg/kg): 3.0 ± 1.0 | Number of Ulcers/Stomach, 3 mm or larger (stress-induced ulcer; 100 mg/kg): 0.8 | Number of Ulcers/Stomach, up to 3 mm (stress-induced ulcer; 100 mg/kg): 23.4 | Percent Inhibition (stress-induced ulcer; 100 mg/kg): 51%

Cc1ccccc1C(=O)Nc1ccc(OCCCN(C)C)c(NC(=O)c2ccccc2C)c1 [1-(3'-dimethylaminopropoxy)-2,4-bis(2"-methylbenzamido)-benzene]
Death Rate (pylorus ligature ulcer; 50 mg/kg): 20% | Perforating Ulcers (pylorus ligature ulcer; 50 mg/kg): 20% | Ulcer Index (mean value ± standard deviation) (pylorus ligature ulcer; 50 mg/kg): 3.2 ± 1.3 | Percent Inhibition (pylorus ligature ulcer; 50 mg/kg): 20% | inhibition of death of rats and formation of perforating ulcers (pylorus ligature ulcer; 100 mg/kg or 200 mg/kg): completely inhibited the death of rats and the formation of perforating ulcers | prevention of formation of gastric ulcers (pylorus ligature ulcer; 100 mg/kg or 200 mg/kg): prevented the formation of gastric ulcers on a statistically significant level | Death Rate (pylorus ligature ulcer; 100 mg/kg): 0% | Perforating Ulcers (pylorus ligature ulcer; 100 mg/kg): 0% | Ulcer Index (mean value ± standard deviation) (pylorus ligature ulcer; 100 mg/kg): 2.6 ± 0.5 | Percent Inhibition (pylorus ligature ulcer; 100 mg/kg): 35% | Death Rate (pylorus ligature ulcer; 200 mg/kg): 0% | Perforating Ulcers (pylorus ligature ulcer; 200 mg/kg): 0% | Ulcer Index (mean value ± standard deviation) (pylorus ligature ulcer; 200 mg/kg): 0 | Percent Inhibition (pylorus ligature ulcer; 200 mg/kg): 100% | dose dependence of inhibiting action on ulcer formation (stress-induced ulcer): inhibiting action increases as the dose level heightens | inhibition of the formation of ulcer (stress-induced ulcer; 30 mg/kg body weight): 50-60% | Ulcer Index (mean value ± standard deviation) (stress-induced ulcer; 30 mg/kg): 2.8 ± 0.8 | Number of Ulcers/Stomach, 3 mm or larger (stress-induced ulcer; 30 mg/kg): 0.6 | Number of Ulcers/Stomach, up to 3 mm (stress-induced ulcer; 30 mg/kg): 23.4 | Percent Inhibition (stress-induced ulcer; 30 mg/kg): 54% | Ulcer Index (mean value ± standard deviation) (stress-induced ulcer; 45 mg/kg): 2.0 ± 0.6 | Number of Ulcers/Stomach, 3 mm or larger (stress-induced ulcer; 45 mg/kg): 0.2 | Number of Ulcers/Stomach, up to 3 mm (stress-induced ulcer; 45 mg/kg): 16.8 | Percent Inhibition (stress-induced ulcer; 45 mg/kg): 67% | Ulcer Index (mean value ± standard deviation) (stress-induced ulcer; 67 mg/kg): 1.0 ± 0.9 | Number of Ulcers/Stomach, 3 mm or larger (stress-induced ulcer; 67 mg/kg): 0.2 | Number of Ulcers/Stomach, up to 3 mm (stress-induced ulcer; 67 mg/kg): 8.8 | Percent Inhibition (stress-induced ulcer; 67 mg/kg): 84% | Ulcer Index (mean value ± standard deviation) (stress-induced ulcer; 100 mg/kg): 0.4 ± 0.5 | Number of Ulcers/Stomach, 3 mm or larger (stress-induced ulcer; 100 mg/kg): 0 | Number of Ulcers/Stomach, up to 3 mm (stress-induced ulcer; 100 mg/kg): 3.8 | Percent Inhibition (stress-induced ulcer; 100 mg/kg): 93%

Cc1cccc(C(=O)Nc2ccc(OCCCN(C)C)c(NC(=O)c3cccc(C)c3)c2)c1 [1-(3'-dimethylaminopropoxy)-2,4-bis(3"-methylbenzamido)-benzene]
Death Rate (pylorus ligature ulcer; 50 mg/kg): 33% | Perforating Ulcers (pylorus ligature ulcer; 50 mg/kg): 50% | Ulcer Index (mean value ± standard deviation) (pylorus ligature ulcer; 50 mg/kg): 4.0 ± 1.1 | Percent Inhibition (pylorus ligature ulcer; 50 mg/kg): 0% | inhibition of death of rats and formation of perforating ulcers (pylorus ligature ulcer; 100 mg/kg or 200 mg/kg): completely inhibited the death of rats and the formation of perforating ulcers | prevention of formation of gastric ulcers (pylorus ligature ulcer; 100 mg/kg or 200 mg/kg): prevented the formation of gastric ulcers on a statistically significant level | Death Rate (pylorus ligature ulcer; 100 mg/kg): 0% | Perforating Ulcers (pylorus ligature ulcer; 100 mg/kg): 0% | Ulcer Index (mean value ± standard deviation) (pylorus ligature ulcer; 100 mg/kg): 2.0 ± 1.4 | Percent Inhibition (pylorus ligature ulcer; 100 mg/kg): 50% | Death Rate (pylorus ligature ulcer; 200 mg/kg): 0% | Perforating Ulcers (pylorus ligature ulcer; 200 mg/kg): 0% | Ulcer Index (mean value ± standard deviation) (pylorus ligature ulcer; 200 mg/kg): 1.0 ± 1.1 | Percent Inhibition (pylorus ligature ulcer; 200 mg/kg): 75% | dose dependence of inhibiting action on ulcer formation (stress-induced ulcer): inhibiting action increases as the dose level heightens | inhibition of the formation of ulcer (stress-induced ulcer; 30 mg/kg body weight): 50-60% | Ulcer Index (mean value ± standard deviation) (stress-induced ulcer; 30 mg/kg): 2.6 ± 2.1 | Number of Ulcers/Stomach, 3 mm or larger (stress-induced ulcer; 30 mg/kg): 0.5 | Number of Ulcers/Stomach, up to 3 mm (stress-induced ulcer; 30 mg/kg): 21.4 | Percent Inhibition (stress-induced ulcer; 30 mg/kg): 57% | Ulcer Index (mean value ± standard deviation) (stress-induced ulcer; 45 mg/kg): 2.0 ± 1.7 | Number of Ulcers/Stomach, 3 mm or larger (stress-induced ulcer; 45 mg/kg): 1.0 | Number of Ulcers/Stomach, up to 3 mm (stress-induced ulcer; 45 mg/kg): 8.7 | Percent Inhibition (stress-induced ulcer; 45 mg/kg): 67% | Ulcer Index (mean value ± standard deviation) (stress-induced ulcer; 67 mg/kg): 1.5 ± 2.7 | Number of Ulcers/Stomach, 3 mm or larger (stress-induced ulcer; 67 mg/kg): 0.8 | Number of Ulcers/Stomach, up to 3 mm (stress-induced ulcer; 67 mg/kg): 7.3 | Percent Inhibition (stress-induced ulcer; 67 mg/kg): 75% | Ulcer Index (mean value ± standard deviation) (stress-induced ulcer; 100 mg/kg): 2.0 ± 2.1 | Number of Ulcers/Stomach, 3 mm or larger (stress-induced ulcer; 100 mg/kg): 0.8 | Number of Ulcers/Stomach, up to 3 mm (stress-induced ulcer; 100 mg/kg): 10.6 | Percent Inhibition (stress-induced ulcer; 100 mg/kg): 67% | ulcer index in comparison with control (acetic acid ulcer; 10 mg/kg and 40 mg/kg): on a statistically significant lower level in comparison with those of the control | Percent healing Rate (acetic acid ulcer; 10 mg/kg): 45% | Ulcer Index (mean number ± standard deviation), product of major and minor axis (acetic acid ulcer; 10 mg/kg): 6.9 ± 5.6 mm^2 | Percent healing Rate (acetic acid ulcer; 40 mg/kg): 42% | Ulcer Index (mean number ± standard deviation), product of major and minor axis (acetic acid ulcer; 40 mg/kg): 7.2 ± 5.1 mm^2

Cc1cccc(C(=O)Nc2ccc(C(=O)NCCCN(C)C)c(NC(=O)c3cccc(C)c3)c2)c1 [1-[N-(3'-dimethylaminopropyl)-carbamoyl]-2,4-bis(3"-methylbenzamido)-benzene]
inhibition of death of rats and formation of perforating ulcers (pylorus ligature ulcer; 200 mg/kg): completely inhibited the death of rats and the formation of perforating ulcers | prevention of formation of gastric ulcers (pylorus ligature ulcer; 200 mg/kg): prevented the formation of gastric ulcers on a statistically significant level | Death Rate (pylorus ligature ulcer; 200 mg/kg): 0% | Perforating Ulcers (pylorus ligature ulcer; 200 mg/kg): 0% | Ulcer Index (mean value ± standard deviation) (pylorus ligature ulcer; 200 mg/kg): 2.5 ± 1.4 | Percent Inhibition (pylorus ligature ulcer; 200 mg/kg): 38% | inhibition of the formation of ulcer (stress-induced ulcer; 100 mg/kg body weight): 50-60% | Ulcer Index (mean value ± standard deviation) (stress-induced ulcer; 100 mg/kg): 2.4 ± 2.1 | Number of Ulcers/Stomach, 3 mm or larger (stress-induced ulcer; 100 mg/kg): 0.6 | Number of Ulcers/Stomach, up to 3 mm (stress-induced ulcer; 100 mg/kg): 17.6 | Percent Inhibition (stress-induced ulcer; 100 mg/kg): 61%
